Experimental findings from patent US9296774B2, “Halogenated dideoxy sugar derivates, preparation method and application thereof” (Suzhou Harmony Biotechnology Co., Ltd., priority 2009, dated 2016) are described below.

Entries after “also recorded” stand apart in the source; their conditions may differ.

For orientation: LD50 means the dose at which mortality reaches 50%. A low value points to greater toxicity.

Data set [1] has as its system mouse. Put plainly: Acute toxicity (LD50), mouse ig.
For data set [2], the system named is mouse. As to the kind of experiment: Acute toxicity (LD50), mouse ip injection. The settings on record: mouse ip after injection.
The subject of another data set is B16 malignant melanoma. As to the kind of experiment: Mouse transplant tumor, B16 malignant melanoma. As to conditions: for Inhibition of tumor growth (%) / Weight of tumor / weight end / weight start: B16, 125 mg/kg once a day for 7 days; for weight end: body weight at end; for weight start: body weight at start; for inhibitive effect on mouse transplant tumor (in words): B16 malignant melanoma, 125 mg/kg.

For data set [3], the system named is MX-1 human breast cancer cells. As to the kind of experiment: Mouse transplant tumor, MX-1 human breast cancer.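 On all read-outs here: mice given saline served as the control group.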 The settings on record: for inhibitive effect on mouse transplant tumor (in words): 125 mg/kg; for Inhibition of tumor growth / Weight of tumor / weight end / weight start: 125 mg/kg once a day for 7 days; for weight end: animal weight at end; for weight start: animal weight at start.
Experimental: (§1) Saline solution was used as a control. The positive group CTX was treated with the compounds at an amount of 0.4 ml/20 g. The compounds were applied once a day for consecutive 7 days.

Data set [4] has as its system MGC human stomach cancer cells. Put plainly: Mouse transplant tumor, MGC human stomach cancer.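 On all read-outs here: control group received saline vehicle.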 The settings on record: for inhibitive effect on mouse transplant tumor (in words): 125 mg/kg; for Inhibition of tumor growth / Weight of tumor / weight end / weight start: 125 mg/kg once a day for 7 days; for weight end: animal weight at end; for weight start: animal weight at start.
Experimental: Saline solution was used as a control. The positive group CTX was treated with the compounds at an amount of 0.4 ml/20 g. The compounds were applied once a day for consecutive 7 days. The animals were then compensated.

A further data set has as its system 05-732 human bone tumor. Put plainly: Mouse transplant tumor, 05-732 human osteosarcoma. As to conditions: for inhibitive effect on mouse transplant tumor (in words): 05-732 human bone tumor, 125 mg/kg; for Inhibtion of tumor growth / Weight of tumor / weight end / weight start: 05-732 human osteosarcoma, 125 mg/kg once a day for 7 days; for weight end: animal weight at end; for weight start: animal weight at start.

Data set [5] concerns AsPc human pancreatic cancer cells. As to the kind of experiment: Mouse transplant tumor, AsPc human pancreatic cancer.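 On all read-outs here: Saline-treated mice served as the control group, with a CTX-treated group as positive reference.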 The settings on record: for inhibitive effect on mouse transplant tumor (in words): 125 mg/kg; for Inhibition of tumor growth / Weight of tumor / weight end / weight start: 125 mg/kg once a day for 7 days; for weight end: animal weight at end; for weight start: animal weight at start.
Experimental: as §1

Data set [6] concerns anaplastic thyroid carcinoma TA-K cells. Put plainly: Mouse transplant tumor, human anaplastic thyroid carcinoma TA-K.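 On all read-outs here: Tumor-bearing mice compared against a saline-treated control group.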 The settings on record: for inhibitive effect on mouse transplant tumor (in words): anaplastic thyroid carcinoma TA-K, 125 mg/kg; for Inhibition of tumor growth / Weight of tumor / weight end / weight start: human anaplastic thyroid carcinoma TA-K, 125 mg/kg once a day for 7 days; for weight end: animal weight at end; for weight start: animal weight at start.
Experimental: as §1

Experimental for 05-732 human bone tumor: as §1
Experimental for B16 malignant melanoma: as §1

As for `CC(=O)OCC1OC(OP(=O)(O)N(CCCl)CCCl)C(Br)CC1OC(C)=O` (stereo not drawn) [Compound 12], the LD50 in the data set on mouse [1] is 2101.4 mg/kg; with mouse [2] it was 306.4 mg/kg. For the same compound, the “Inhibition of tumor growth (%)” value with B16 malignant melanoma is 79.5%. Also, the Weight of tumor in the data set on B16 malignant melanoma is reported as 0.5; in data set [3], 0.4; in data set [4], 0.5; in the data set on 05-732 human bone tumor it was 0.5; in data set [5], 0.5; in data set [6] it was 0.6. Also, the weight end (in the data set with B16 malignant melanoma; in data set [3]; in data set [4]; in the data set on 05-732 human bone tumor; in data set [5]; in data set [6]) was 18.4 in each case. Moreover, the weight start (in the data set with B16 malignant melanoma; in data set [3]; in data set [4]; in the data set on 05-732 human bone tumor; in data set [5]; in data set [6]) was 18.2 in each case. In addition, the “inhibitive effect on mouse transplant tumor (in words)” value (shortened to “inhibitive effect”) (with B16 malignant melanoma; in data set [3]; in data set [4]; in the data set on 05-732 human bone tumor; in data set [5]; in data set [6]) was “significant effect” each time. The “Inhibition of tumor growth” value in data set [3] is 82.1; in data set [4] it was 80.5; in data set [5], 77.5; in data set [6], 75.8. Further, in the data set on 05-732 human bone tumor, the “Inhibtion of tumor growth” value turned out to be 75.1.
For `CC(=O)OCC1OC(OP(=O)(NCCCl)NCCCl)CC(Br)C1OC(C)=O` (single isomer, unassigned) [Compound 6], the LD50 with mouse [1] was determined as 2205.8 mg/kg; in the data set on mouse [2], 307.1 mg/kg.
For the compound `CC(=O)OCC1OC(OP(=O)(O)N(CCCl)CCCl)CC(Br)C1OC(C)=O` (stereo not drawn) [Compound 10], in the data set on mouse [1], the LD50 is 2223.7 mg/kg. Besides, the LD50 in the data set with mouse [2] is given as 315.6 mg/kg. For the same compound, in the data set with B16 malignant melanoma, the “Inhibition of tumor growth (%)” value is reported as 73.1%, the Weight of tumor was determined as 0.7, the weight end is recorded as 18.3 and the weight start is given as 18.3. For the same compound, the “inhibitive effect” value in the data set on B16 malignant melanoma is “good inhibitive effect; also recorded: significant effect”. Besides, in data set [3], the “inhibitive effect” value is on record as “good inhibitive effect; also recorded: significant effect”, the “Inhibition of tumor growth” value turned out to be 73.2, the Weight of tumor is 0.7 and the weight end amounted to 18.3. Also, the weight start in data set [3] is recorded as 18.3. For the same compound, in data set [4], the “inhibitive effect” value is on record as “good inhibitive effect; also recorded: significant effect”, the “Inhibition of tumor growth” value was 73.2, the Weight of tumor is 0.6 and the weight end stood at 18.3. In data set [4], this compound had a weight start of 18.3. Also, in the data set with 05-732 human bone tumor, the “inhibitive effect” value is recorded as “good inhibitive effect; also recorded: significant effect”, the “Inhibtion of tumor growth” value turned out to be 78.4, the Weight of tumor came to 0.6 and the weight end amounted to 18.3. For the same compound, the weight start with 05-732 human bone tumor came out at 18.3. In data set [5], the “inhibitive effect” value was “good inhibitive effect; also recorded: significant effect”, the “Inhibition of tumor growth” value is on record as 76.9, the Weight of tumor turned out to be 0.5 and the weight end is 18.3. In data set [5], this compound had a weight start of 18.3. For the same compound, in data set [6], the “inhibitive effect” value was “good inhibitive effect; also recorded: significant effect”, the “Inhibition of tumor growth” value worked out at 71.2, the Weight of tumor was found to be 0.8 and the weight end is reported as 18.3. The weight start in data set [6] was found to be 18.3.
